Values after ≈ are worked out from the molar mass of the structure shown. Where a name gives a salt, the structure may show the parent alone.

The subject of experiment [1] is Staphylococcus epidermidis. Briefly: 24-hour minimum inhibitory concentration, microdilution method, Mueller-Hinton broth. It counts as cell-based. Conditions: S. epidermidis, read-out: In-Vitro MIC. As for the experimental part:
The compounds listed below in Table 1 were tested for in vivo and in vitro antibacterial activity. The twenty-four hour minimum inhibitory in vitro concentrations (MIC) for a test strain of Staphylococcus epidermidis of the compounds were determined using a standard microdilution method with Mueller-Hinton broth. This method is described in Conrath, Theodore B., 1972 Handbook of Microtiter Procedures, Dynatech Corporation, Cambridge, Mass., the disclosure of which is herein incorporated by reference. | ^1 24Hour minimum inhibitory concentration: determined by | microdilution method with S. epidermidis as the test organism.
On the technique in general: In broth dilution the organism is exposed to a series of concentrations in liquid medium.

In a further experiment the test system is Staphylococcus aureus. Briefly: in vivo antibacterial activity, mice infected intraperitoneally, oral dosing. The note with it: oral at infection and 4 hours later, Reed-Muench, mortality, read-out: In-Vivo ED50, S. aureus. The method, then:
(§1) The in vivo antibacterial activity of the compounds was determined as follows.
(§2) Cultures of Staphylococcus aureus or Escherichia coli were grown from stored frozen stocks in trypticase soy broth (BBL), a standard bacteriological growth medium, with shaking until a turbidity of optical density (650μ) of 0.4-0.5 was attained. These cultures were centrifuged and resuspended in either 50% hog gastric mucin for Staphyloccus aureus or saline for Escherichia coli. These suspensions were injected intraperitoneally at dilutions calculated to cause 90-100% mortality within 7 days of the mice of the control groups.
(§3) The compounds were suspended or dissolved in 0.25% Methocel, 15 CPS, at various concentrations. Mice were dosed orally by intubation at the time of infection and again four hours later. Mortality was recorded daily until test termination. The estimated dose 50 (ED50) was calculated by the Reed-Muench method, as described in Reed, L. J. and Muench, H., American Journal of Hygiene, 27, 493-497 (1938), the disclosure of which is herein incorporated by reference.

The next experiment has as its system Bacteroides sp. The experiment is described as follows: in-vitro susceptibility of anaerobic clinical isolates, agar dilution. It counts as cell-based. Conditions: 48-hour, 32 isolates (chloromethyl compound), 28 isolates (hydroxymethyl compound). The method, then:
(§4) The inhibitory activity for anaerobic bacteria of 5-chloromethyl-3-(4-difluoromethylsulfonyl)phenyl-2-oxazolidinone and (1)-5-hydroxymethyl-3-(4-methylsulfonyl)phenyl-2-oxazolidinone was determined using the agar dilution method described in Barry, Arthur L., The Antimicrobic Susceptibility Test: Principles and Practices, 1976 Lea & Febiger, Philadelphia.
(§5) ^1 48hour minimum inhibitory concentration determined by agar dilutio

The subject of the next experiment is Clostridium sp. Described as above. It counts as cell-based. Conditions: 48-hour, 4 isolates tested for each compound. As for the experimental part: as §4, §5
The subject of the next experiment is Fusobacterium sp. Described as above. It counts as cell-based. The note with it: 48-hour, 4 isolates tested for each compound. As for the experimental part:
as §4, §5

For another experiment, the system named is Gram positive cocci. The experiment is described as above. It counts as cell-based. Conditions: 48-hour, 7 isolates tested for each compound. As for the experimental part:
as §4, §5

The next experiment relates to anaerobic bacteria. Briefly: inhibitory activity for anaerobic bacteria, agar dilution. It counts as cell-based. The note with it: in words, from Table 3. As for the experimental part:
as §4
For orientation: In agar dilution, organisms are placed on agar that contains the substance at set levels.

Another experiment has as its system Escherichia coli. The experiment is described as follows: in vivo antibacterial activity, mice infected intraperitoneally, oral dosing. Conditions: oral at infection and 4 hours later, Reed-Muench, mortality, read-out: In-Vivo ED50, E. coli. The method, then: as §1, §2, §3
Another experiment relates to E. coli. Briefly: in-vitro susceptibility of clinical isolates, agar dilution. It counts as cell-based. The note with it: Escherichia coli, 24-hour, 35° C., 86 isolates. The method, then: (§6) The in-vitro antibacterial activity spectrum of (1)-5-Hydroxymethyl-3-(4-methylsulfonyl)phenyl-2-oxazolidinone, determined by an agar dilution procedure, is shown in table 2. This procedure is known in the art and can be summarized as follows. […] The agar plates were inoculated with a 0.001 ml calibrated loopful of bacterial inoculum diluted to contain 5×10^6 colony forming units (CFU) per ml. […] The test organisms included clinical bacterial isolates representing two gram positive and nine gram negative genera.
(§7) ^1 MIC: Minimum Inhibitory Concentration determined by agar dilution

Another experiment concerns Enterobacter sp. The experiment is described as above. It counts as cell-based. The note with it: 24-hour, 35° C., 41 isolates. As for the experimental part: as §6, §7
For a further experiment, the system named is Hemophilus influenzae. The description is as above. It counts as cell-based. The note with it: Haemophilus influenzae, 24-hour, 35° C., 4 isolates. The method, then: as §6, §7
A further experiment has as its system Klebsiella sp. The experiment is described as above. It counts as cell-based. The note with it: 24-hour, 35° C., 68 isolates. The method, then:
as §6, §7

The subject of a further experiment is Neisseria sp. The description is as above. It counts as cell-based. Conditions: 24-hour, 35° C., 42 isolates. The method, then:
as §6, §7

In a further experiment the test system is Proteus sp. The experiment is described as above. It counts as cell-based. The note with it: 24-hour, 35° C., 88 isolates. As for the experimental part: as §6, §7
A further experiment has as its system Providencia sp. Described as above. It counts as cell-based. The note with it: 24-hour, 35° C., 12 isolates. The method, then: as §6, §7
The subject of another experiment is Pseudomonas sp. The experiment is described as above. It counts as cell-based. Conditions: 24-hour, 35° C., 78 isolates. As for the experimental part:
as §6, §7

Another experiment deals with Salmonella sp. The description is as above. It counts as cell-based. The note with it: 24-hour, 35° C., 6 isolates. As for the experimental part:
as §6, §7

Another experiment relates to Serratia sp. Described as above. It counts as cell-based. The note with it: 24-hour, 35° C., 44 isolates. As for the experimental part: as §6, §7
The subject of a further experiment is Shigella sp. The description is as above. It counts as cell-based. The note with it: 24-hour, 35° C., 9 isolates. As for the experimental part: as §6, §7
The subject of another experiment is Staphylococci sp. The experiment is described as above. It counts as cell-based. Conditions: 24-hour, 35° C., 37 isolates. The method, then:
as §6, §7

A further experiment has as its system Streptococci sp. Described as above. It counts as cell-based. The note with it: 24-hour, 35° C., 12 isolates. As for the experimental part: as §6, §7

Turning to `O=C1OC(CO)CN1c1ccc(S(=O)(=O)C(F)(F)F)cc1` (stereo not drawn) [5-Hydroxymethyl-3-(4-trifluoromethylsulfonylphenyl)-2-oxazolidinone], the MIC in experiment [1] was found to be 12.5 µg/mL (≈ 38.4 µM). Besides, the ED50 in the experiment on Staphylococcus aureus amounted to 20 mg/kg.

Regarding `O=C1OC(CCl)CN1c1ccc(S(=O)(=O)C(F)F)cc1` (stereo not drawn) [5-Chloromethyl-3-(4-difluoromethylsulfonylphenyl)-2-oxazolidinone], the MIC in experiment [1] worked out at 2.5 µg/mL (≈ 7.68 µM); with Bacteroides sp. it was 1.8 µg/mL (≈ 5.53 µM); against Clostridium sp., 1 µg/mL (≈ 3.07 µM); with Fusobacterium sp., 0.06 µg/mL (≈ 0.184 µM); against Gram positive cocci it was 0.7 µg/mL (≈ 2.15 µM). Besides, in the experiment on Staphylococcus aureus, the ED50 worked out at 20 mg/kg. Also, the “inhibition of anaerobic bacterial growth” value in the experiment on anaerobic bacteria was “potent inhibitors of anaerobic bacterial growth”.

With `O=C1OC(CCl)CN1c1ccc(S(=O)(=O)C(F)(F)C(F)F)cc1` (stereo not drawn) [5-Chloromethyl-3-[4-(1,1,2,2-tetrafluoroethylsulfonyl)phenyl]-2-oxazolidinone], the MIC in experiment [1] was 10 µg/mL (≈ 26.6 µM). In addition, in the experiment with Staphylococcus aureus, the 50% effective dose (ED50) stood at 92 mg/kg.

For the compound `CS(=O)(=O)c1ccc(N2CC(CBr)OC2=O)cc1` (stereo not drawn) [5-Bromomethyl-3-(4-methylsulfonyl)phenyl-2-oxazolidinone], the MIC in [1] was found to be 5 µg/mL (≈ 15 µM).

For `O=C1OC(CCl)CN1c1ccc(S(=O)(=O)C(F)(F)F)cc1` (stereo not drawn) [5-Chloromethyl-3-(4-trifluoromethylsulfonylphenyl)-2-oxazolidinone], the MIC in [1] came to 4.7 µg/mL (≈ 13.7 µM). Moreover, the ED50 with Staphylococcus aureus amounted to 105 mg/kg.

Take `CS(=O)(=O)c1ccc(N2C[C@H](CO)OC2=O)cc1` [R-(-)-3-(4-Methylsulfonylphenyl)-5-hydroxymethyl-2-oxazolidinone]: the MIC in experiment [1] was found to be 12.5 µg/mL (≈ 46.1 µM); with E. coli, 21.7 µg/mL (≈ 80 µM); in the experiment on Enterobacter sp. it was 37.9 µg/mL (≈ 140 µM); in the experiment with Hemophilus influenzae, 16 µg/mL (≈ 59 µM); in the experiment on Klebsiella sp. it was 37.5 µg/mL (≈ 138 µM); against Neisseria sp., 10.5 µg/mL (≈ 38.7 µM). For the same compound, the MIC against Proteus sp. was 21.7 µg/mL (≈ 80 µM); against Providencia sp. it was 26.7 µg/mL (≈ 98.4 µM); with Pseudomonas sp., not below 128 µg/mL; in the experiment on Salmonella sp., 16 µg/mL (≈ 59 µM); against Serratia sp. it was not below 108 µg/mL; against Shigella sp. it was 11.6 µg/mL (≈ 42.8 µM). Moreover, the MIC worked out at 3.8 µg/mL (≈ 14 µM) in the experiment with Staphylococci sp.; 3.7 µg/mL (≈ 13.6 µM) with Streptococci sp.; 3.4 µg/mL (≈ 12.5 µM) with Bacteroides sp.; 7 µg/mL (≈ 25.8 µM) in the experiment with Clostridium sp.; 0.3 µg/mL (≈ 1.11 µM) against Fusobacterium sp.; 1.3 µg/mL (≈ 4.79 µM) against Gram positive cocci. The ED50 with Escherichia coli turned out to be 25 mg/kg; in the experiment with Staphylococcus aureus, 9 mg/kg. Moreover, the “inhibition of anaerobic bacterial growth” value in the experiment with anaerobic bacteria is “potent inhibitors of anaerobic bacterial growth”.

In the case of `CS(=O)(=O)c1ccc(N2CC(CCl)OC2=O)cc1` (stereo not drawn) [5-Chloromethyl-3-(4-methylsulfonylphenyl)-2-oxazolidinone], the MIC in experiment [1] came to 5 µg/mL (≈ 17.3 µM). Further, the 50% effective dose (ED50) was 63 mg/kg with Escherichia coli and 29 mg/kg in the experiment with Staphylococcus aureus.

Turning to `CS(=O)(=O)c1ccc(N2CC(COC(=O)CCC(=O)O)OC2=O)cc1` (racemic) [(dl)-3-(4-Methylsulfonylphenyl)-2-oxooxazolidin-5-ylmethyl 1,4-Butanedioic Acid Mono Ester, Mono Sodium Salt], the MIC in [1] was more than 50 µg/mL. The median effective dose (ED50) in the experiment on Escherichia coli came out at 40 mg/kg; in the experiment with Staphylococcus aureus it was 26 mg/kg.

Regarding `CC(=O)OCC1CN(c2ccc(S(C)(=O)=O)cc2)C(=O)O1` (stereo not drawn) [5-Acetoxymethyl-3-(4-methylsulfonyl)phenyl-2-oxazolidinone], the MIC in experiment [1] was more than 50 µg/mL. The 50% effective dose (ED50) with Staphylococcus aureus was determined as 100 mg/kg.

As to `C[S+]([O-])c1ccc(N2CC(CO)OC2=O)cc1` (stereo not drawn) [5-Hydroxymethyl-3-(4-methylsulfinylphenyl)-2-oxazolidinone], the MIC in experiment [1] is 50 µg/mL (≈ 196 µM). Besides, the median effective dose (ED50) in the experiment with Staphylococcus aureus came to 27 mg/kg.

Regarding `C[C@H](N)C(=O)OCC1CN(c2ccc(S(C)(=O)=O)cc2)C(=O)O1` (stereo partly drawn) [5-(L)-Alanyloxymethyl-(1)-3-(4-methylsulfonyl)phenyl-2-oxazolidinone trifluoroacetic acid salt], the MIC in experiment [1] came to 25 µg/mL. For the same compound, the ED50 in the experiment on Staphylococcus aureus is 14 mg/kg.

With `C[S+]([O-])c1ccc(N2CC(CCl)OC2=O)cc1` (stereo not drawn) [5-chloromethyl-3-(4-methylsulfinyl)phenyl-2-oxazolidinone], the MIC in experiment [1] was 25 µg/mL (≈ 91.3 µM).

With `CS(=O)(=O)c1ccc(N2CC(CO)OC2=O)cc1` (racemic) [5-Hydroxymethyl-3-(4-methylsulfonylphenyl)-2-oxazolidinone], the MIC in [1] turned out to be 12.5 µg/mL (≈ 46.1 µM). The ED50 is 40 mg/kg in the experiment with Escherichia coli and 18 mg/kg with Staphylococcus aureus.

Turning to `O=C1OC(CO)CN1c1ccc(S(=O)(=O)C(F)(F)C(F)F)cc1` (stereo not drawn) [5-Hydroxymethyl-3-[4-(1,1,2,2-tetrafluoroethylsulfonyl)phenyl]-2-oxazolidinone], the MIC in [1] is 12.5 µg/mL (≈ 35 µM). Moreover, the ED50 with Staphylococcus aureus is 108 mg/kg.

In the case of `CS(=O)(=O)c1ccc(N2CC(CF)OC2=O)cc1` (stereo not drawn) [5-Fluoromethyl-3-(4-methylsulfonyl)phenyl-2-oxazolidinone], in experiment [1], the MIC was 20 µg/mL (≈ 73.2 µM). The ED50 in the experiment with Staphylococcus aureus was found to be 35 mg/kg.

With `CCS(=O)(=O)c1ccc(N2CC(CCl)OC2=O)cc1` (stereo not drawn) [5-chloromethyl-3-(4-ethylsulfonyl)phenyl-2-oxazolidinone], in experiment [1], the MIC worked out at 50 µg/mL (≈ 165 µM).

In the case of `O=C1OC(CO)CN1c1ccc(S(=O)(=O)C(F)F)cc1` (stereo not drawn) [5-Hydroxymethyl-3-(4-difluoromethylsulfonylphenyl)-2-oxazolidinone], the MIC in experiment [1] came to 3.1 µg/mL (≈ 10.1 µM). The ED50 in the experiment with Escherichia coli was 27 mg/kg; in the experiment on Staphylococcus aureus it was 23 mg/kg.

As to `CS(=O)(=O)c1ccc(N2CC(COC(=O)CCC(=O)O)OC2=O)cc1` (single isomer, unassigned) [l-3-(4-Methylsulfonylphenyl)-2-oxooxazolidin-5-ylmethyl 1,4-Butanediodic Acid Mono Ester, Mono Sodium Salt], in the experiment with Staphylococcus aureus, the 50% effective dose (ED50) stood at 20 mg/kg.

In general, ED50 refers to the midpoint of the dose-response relation.

Values taken from patent US4340606A, “3-(p-Alkylsulfonylphenyl)oxazolidinone derivatives as antibacterial agents” (E. I. Du Pont de Nemours and Company, priority 1980, dated 1982).
